Results as given in patent US10786518B2, “Compositions and methods of treating HIV” (priority 2017, dated 2020).
Values joined by “and” are separate entries in the source; they are usually repeats but may differ in a detail not shown here. Equal entries are not always repeated. Structures can show the parent of a compound that is named as a salt. Where two headings read alike, the source gives them in different places. Marks after values point to notes of the source that are not given here.

Columns and labels:
[1] = clinical; conditions: human, po
[2] = clinical; conditions: human
[3] = Bioequivalence study: plasma pharmacokinetics; conditions: single oral dose D/C/F/TAF 800/150/200/10 mg (test), fed, standardized regular breakfast
[4] = Food-effect bioavailability study: plasma pharmacokinetics; conditions: for AUCinf geometric mean ratio (90% CI), fasted (test) vs fed (reference) / AUClast geometric mean ratio (90% CI), fasted (test) vs fed (reference) / Cmax geometric mean ratio (90% CI), fasted (test) vs fed (reference) / t1/2term, mean (SD) / AUCinf, mean (SD) / AUClast, mean (SD) / Cmax, mean (SD): single oral dose D/C/F/TAF 800/150/200/10 mg;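 as to all read-outs here: volunteers randomized to two single-dose treatment sessions separated by a washout of at least 7 days, dosing preceded by an overnight fast of at least 10 h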
[5] = system: HIV-1; conditions: n = 102 newly diagnosed treatment-naive patients
[6] = human, in vivo
[7] = human, in vivo; remark: listed apart in the source
[8] = cited from earlier work; for Mean systemic tenofovir exposure: TAF group versus TDF group of the Phase II study
[9] = administered as D/C/F/TAF, fed = standardized high-fat breakfast
[10] = fed, standardized high-fat breakfast (reference)
[11] = subset of 32 treatment-naive HIV-1-infected adults

SMILES | t1/2term, mean [3] | AUCinf lower in fasted compared with fed conditions [4, 9] | AUCinf geometric mean ratio (90% CI), fasted (test) vs fed (reference) [4] | AUClast geometric mean ratio (90% CI), fasted (test) vs fed (reference) [4] | Cmax geometric mean ratio (90% CI), fasted (test) vs fed (reference) [4] | t1/2term, mean (SD) ([4]; fasted (test)) | AUCinf, mean (SD) [4, 10] | Cmax, mean (SD) [4, 10] | t1/2term, mean (SD) [4, 10] | Genotypic susceptibility at screening/baseline, patients [5] | AUC(0-inf) ([2]; in vivo) | Cmax ([2]; in vivo) | AUC(0-t) ([2]; in vivo) | Mean systemic tenofovir exposure [8] | also measured
CC(C)c1nc(CN(C)C(=O)N[C@@H](CCN2CCOCC2)C(=O)N[C@H](CC[C@H](Cc2ccccc2)NC(=O)OCc2cncs2)Cc2ccccc2)cs1 [COBI, cobicistat] | 3.7 h | 16% | 84.39^k (68.52-103.95)^ % | 70.90 (51.13-98.30) % | 76.96 (55.70-106.33) % | 4.1 (0.9) hours | 6258 (2268) ng · h/mL | 711 (164) ng/mL | 3.9 (0.6) hours |  |  |  |  |  | Tmax ([1]; plasma): 3 h; AUC(0-inf) ([2]; plasma, oral): 6870 ng·h/mL; AUC(0-t) ([2]; plasma, oral): 6760 ng·h/mL; Cmax ([2]; plasma, oral): 881 ng/mL; Tmax ([2]; plasma, oral): 4 h; AUClast lower in fasted compared with fed conditions [4, 9]: 29%; Cmax lower in fasted compared with fed conditions [4, 9]: 23%; AUClast, mean (SD) [4, 10]: 6168 (2260) ng · h/mL
CC(C)CN(C[C@@H](O)[C@H](Cc1ccccc1)NC(=O)O[C@H]1CO[C@H]2OCC[C@H]21)S(=O)(=O)c1ccc(N)cc1 [DRV, darunavir] |  |  |  |  |  |  |  |  |  | (100) % | 85200 ng·h/mL | 6620 ng/mL |  |  | 
Nc1nc(=O)n([C@@H]2CS[C@H](CO)O2)cc1F [FTC, emtricitabine] |  |  |  |  |  |  |  |  |  | (98) % | 11900 ng·h/mL | 2050 ng/mL | 11700 ng·h/mL |  | Cmax higher in fasted compared with fed conditions [6]: 26%; AUClast geometric mean ratio (90% CI), fasted (test) vs fed (reference) ([6]; po): 100.12 (96.29-104.10) %; AUCinf geometric mean ratio, test vs reference [7]: 100.13%; AUClast geometric mean ratio, test vs reference [7]: 100.04%; Cmax geometric mean ratio, test vs reference [7]: 99.32%; t1/2term, mean [7]: 17.0 h; t1/2term, mean ([7]; po): 16.5 h
CC(C)OC(=O)[C@H](C)N[P@](=O)(CO[C@H](C)Cn1cnc2c(N)ncnc21)Oc1ccccc1 [TAF, tenofovir alafenamide] | 0.3 h | 20% | 80.38^l (73.04-88.45)^ % | 89.54 (81.20-98.72) % | 182.29 (140.50-236.50) % | 0.3 (0.2) hours | 125 (57.3) ng · h/mL | 107 (65.2) ng/mL | 0.5 hours and 0.5 (0.1) hours |  | 141 ng·h/mL | 120 ng/mL | 132 ng·h/mL | 339 ng·h/mL | Tmax ([1]; in vivo): 0.5 h; Tmax ([2]; in vivo): 1.01 h; Lower mean systemic tenofovir exposure than in the TDF group ([8]; Phase II study): greater than 90%; Mean plasma exposure (AUClast) [8, 11]: 130.5 ng·h/mL; Median plasma half-life [8, 11]: 27 min; AUClast, fasted versus fed conditions (90% CI of the GMR within 80% to […]) ([4]; administered as D/C/F/TAF): comparable under both conditions; Cmax higher in fasted compared with fed conditions [4, 9]: 82%; AUClast, mean (SD) ([4]; fasted (test)): 106 (44.7) ng · h/mL
CC(C)OC(=O)OCOP(=O)(CO[C@H](C)Cn1cnc2c(N)ncnc21)OCOC(=O)OC(C)C [TDF, tenofovir disoproxil fumarate] |  |  |  |  |  |  |  |  |  | (100) % |  |  |  | 3737 ng·h/mL | 
